We go through 11 compounds from patent US20210244686A1, “Novel Systems And Methods For The Therapeutic Use of Cannabinoids or Cannabinoid Analogs to Increase The Lipid Order of Cholesterol Containing Cell Membranes” (The Regents of the University of Colorado a body corporate, priority 2018, published 2021).

Data set [1] concerns SKNBE2 neuroblastoma cells. In words: Flow cytometric analysis of rhodamine-glibenclamide staining in live cells. The format is cell-based, human. As to conditions: live cells, flow cytometry. Background: A flow cytometer gives signals particle by particle.
The next data set has as its system SK-N-BE(2) cells. In words: Live cell microscopy apoptosis assay (caspase 3/7 dye). Conditions: for apoptotic response to combinatorial 25-hydroxy cholesterol/CBD treatment: 25-hydroxy cholesterol 15 μg/ml, CBD 20 μM, U18666A 10 μM or VULM 1457 5 μM, 24 hours. On the procedure:
To accurately measure cellular apoptosis over time, the present inventors performed live cell microscopy experiments with cells loaded with both DNA and caspase 3/7 dyes, which enables continuous and precise quantification of apoptosis at the single cell level.
Cell viability for SK-N-BE(2) cells was conducted using a fluorometric cell viability assay using Resazurin (PromoKine) according to the manufacturer's instructions. […] Dyes were added at the time of seeding, 18-24 hours prior to performing experiments.
Experiments were performed using an ImageXpress MicroXL microscope and a 10× objective, where images were acquired for each well at the indicated time-points using DAPI and FITC filter sets. […] Percent apoptotic cells was calculated from the sum of apoptotic cell pixels divided by the sum of all cell pixels for each field of view.

The next data set deals with HEK293T cells. The data set is described as above. As to conditions: for apoptotic response to combinatorial 25-hydroxy cholesterol/CBD treatment: 25-hydroxy cholesterol 15 μg/ml, CBD 20 μM, U18666A 10 μM or VULM 1457 5 μM, 24 hours. The format is cell-based. Here is the method: In order to gain further insight into the sensitivity of CBD treated cells to 25-hydroxy cholesterol, the present inventors repeated the apoptosis assay in SK-N-BE(2) and HEK293T cells with combinatorial 25-hydroxy cholesterol/CBD stimulation using sublethal doses of 25-hydroxy cholesterol (15 μg/ml) and CBD (20 μM) in the presence or absence of either the chemical inhibitor of cholesterol transport (U18666A, 10 μM) or cholesterol storage (VULM 1457, 5 μM).
FRAP experiments reveal that DHA and CBD have opposing effects on the lateral diffusion of fluorescently labelled cholesterol in synthetic membranes. Although this implies that CBD increases lipid order and that DHA decreases lipid order, it remains unclear how relevant these biophysical effects of CBD and DHA are to cellular physiology. As a result, the present inventors sought to determine whether CBD and DHA have opposing effects on cells. To this end, the present inventors repeated the live cell apoptosis assays in cells exposed to increasing doses of DHA to determine how DHA affects cell death.

The subject of data set [2] is endoplasmic reticulum in SKNBE2 and HaCaT keratinocyte cells. In words: Confocal microscopy of rhodamine-glibenclamide staining, ER structure. The class given is cell-based, human. As to conditions: for alteration of the structure of the endoplasmic reticulum: SKNBE2 and HaCaT keratinocyte cells. Here is the method:
FIG. 16. Rhodamine-glibenclamide staining in live cells is visualized by confocal microscopy in live cells. ER structure is perturbed after 2 hours of exposure to CBD and o-1602, but not for o-1821 exposure.

Data set [3] in a line: FRAP of NBD-cholesterol in synthetic membrane monolayers. Conditions: DHA 20 μM plus CBD. The source says: CBD's ability to affect cholesterol orientation in both synthetic and cell derived ER membranes implies that CBD may contribute to increased lipid order. The ability of cholesterol oxidase assays to reveal alterations in lipid order has been previously reported in studies noting that cholesterol oxidase can preferentially target caveolar domains, which are ordered lipid domains. Another hallmark of lipid order is a decrease in lateral diffusion of lipids. As a result, the present inventors aimed to measure CBD's ability to perturb the lateral diffusion of fluorescently labelled cholesterol (NBD-cholesterol) in synthetic membranes. The present inventors deposited PC SUVs containing 20% moles of cholesterol and 2% moles NBD-cholesterol on glass-bottom multi-well imaging plates, followed by ultra-sonification to construct fluorescently labelled membrane monolayers. Using these monolayers and confocal microscopy, the inventor's performed fluorescence recovery after photobleaching (FRAP) experiments to measure the kinetics of recovery of fluorescent cholesterol. […] This effect of CBD on lateral diffusion could be rescued with simultaneous treatment with the lipid disordering agent DHA (FIGS. 6G, I). There are two proposed models for how DHA affects cholesterol in membranes. […]

Setting [4] is: DHA 75 μM with MBCD 300 μM or CBD 6.25 μM.

On to `O=C1[C@H](CC[C@H](O)c2ccc(F)cc2)[C@@H](c2ccc(O)cc2)N1c1ccc(F)cc1` [Ezetimibe], for which, in data set [1], the rhodamine-glibenclamide fluorescence result is listed as “Enhanced fluorescence”.
methyl beta cyclodextrin [MBCD]: the figures for the “effect on DHA induced apoptosis” value with SK-N-BE(2) cells (setting [4]) and in the data set with HEK293T cells (setting [4]) were “completely cancel apoptosis” and “delay apoptosis”, respectively.
On to `C=C(C)[C@@H]1CCC(C)=C[C@H]1c1c(O)cc(CCCCC)c(C(=O)O)c1O` [Cannabidiolic Acid, cannabidiolic acid], for which, in data set [1], the rhodamine-glibenclamide fluorescence result was “Enhanced fluorescence”. Moreover, the “alteration of the structure of the endoplasmic reticulum” value (from here on “alteration”) in data set [2] is listed as “not”.
Take `CC/C=C\C/C=C\C/C=C\C/C=C\C/C=C\C/C=C\CCC(=O)O` [DHA]: the “effect of CBD on lateral diffusion with simultaneous DHA” value in data set [3] is “rescued”. Moreover, the apoptosis result in the data set with SK-N-BE(2) cells (relatively low doses of DHA) and in the data set with HEK293T cells (relatively low doses of DHA) was “induce apoptosis” throughout.
Consider `C=C(C)[C@@H]1CCC(C)=C[C@H]1c1c(O)cc(O)cc1CCCCC` [abnormal CBD, 4-[(1R,6R)-3-Methyl-6-(1-methylethenyl)-2-cyclohexen-1-yl]-5-pentyl-1,3-benzenediol], for which the rhodamine-glibenclamide fluorescence entry in data set [1] is “Enhanced fluorescence”. In data set [2], the “alteration” value is “not”.
On to `CCCCCCC(C)(C)c1cc(OC)c(C2C=C(CO)C3CC2C3(C)C)c(OC)c1` (stereo not drawn) [HU-308, 4-[4-(1,1-dimethylheptyl)-2,6-dimethoxyphenyl]-6,6-dimethyl-bicyclo[3.1.1]hept-2-ene-2-methanol], for which, in data set [1], the rhodamine-glibenclamide fluorescence entry is on record as “Enhanced fluorescence”.
Consider `CC(C)c1c(C(=O)Nc2ccccc2)c(-c2ccccc2)c(-c2ccc(F)cc2)n1CC[C@@H](O)C[C@@H](O)CC(=O)O` [Atorvastatin], for which the rhodamine-glibenclamide fluorescence result in data set [1] is recorded as “Enhanced fluorescence”.
Turning to `C=C(C)[C@@H]1CCC(C)=C[C@H]1c1c(C)cc(O)cc1O` [o-1602, 5-methyl-4-[(1R,6R)-3-methyl-6-(1-methylethenyl)-2-cyclohexen-1-yl]-1,3-benzenediol], the rhodamine-glibenclamide fluorescence entry in data set [1] is given as “Enhanced fluorescence”. The “alteration” value in data set [2] is on record as “observed”. Further, in data set [2] (after 2 hours of exposure, live cells), the ER structure result is recorded as “perturbed”.
Regarding `CCN(CC)CCO[C@H]1CC[C@@]2(C)C(=CC[C@@H]3[C@@H]2CC[C@]2(C)C(=O)CC[C@@H]32)C1` [U18666A], the “apoptotic response to combinatorial 25-hydroxy cholesterol/CBD treatment” value with SK-N-BE(2) cells and in the data set on HEK293T cells was “restore the apoptotic response” throughout.
`C[C@H](CO)NC(=O)CCC/C=C\C/C=C\C/C=C\C/C=C\C(C)(C)CCCCC#N` [o-1821]: in data set [1], the rhodamine-glibenclamide fluorescence result is on record as “Enhanced fluorescence”. The “alteration” value in data set [2] is recorded as “not”.
With `CC(C)c1cccc(C(C)C)c1NC(=O)Nc1ccc(Sc2ccc([N+](=O)[O-])cc2)cc1` [VULM 1457], the “apoptotic response to combinatorial 25-hydroxy cholesterol/CBD treatment” value in the data set on SK-N-BE(2) cells and in the data set with HEK293T cells was “restore the apoptotic response” in each case.
